Measurements published in ChEMBL document CHEMBL5346946, “Targeting Arginine Methyltransferase PRMT5 for Cancer Therapy: Updated Progress and Novel Strategies” (J Med Chem, 2023).

What was measured:
PRMT5/MEP50 complex [1] = target: T1, PRMT5/MEP50 complex (Homo sapiens, UniProt O14744); assay: Binding affinity to N-terminal 6xHis-tagged full length human PRMT5/MEP50 expressed in sf21 cells using S-Adenosyl-L-methionine as substrate assessed as dissociation constant incubated for 25 to 60 mins by liquid scintillation analysis
U-87 MG = assay: Anti-proliferative activity against human U-87 MG cells assessed as cell growth inhibition incubated for 3 days by CCK-8 assay; type: functional, cell-based, U-87MG ATCC; settings: 72 h
[2] = target: Voltage-gated inwardly rectifying potassium channel KCNH2 (Homo sapiens, UniProt Q12809); assay: Inhibition of hERG potassium channel in human HEK293 cells by manual patch clamp assay; type: toxicity, cell-based
Z-138 [3] = assay: Antiproliferative activity against human Z138 cells assessed as cell growth inhibition measured after 7 days by CCK-8 assay; type: functional, cell-based; settings: Z-138, 168 h
MDA-MB-468 = assay: Antiproliferative activity against human MDA-MB-468 assessed as cell growth inhibition measured after 7 days by CCK-8 assay; type: functional, cell-based; settings: MDA-MB-468, 168 h
NCI-H358 = assay: Antiproliferative activity against human NCI-H358 assessed as cell growth inhibition measured after 7 days by CCK-8 assay; type: functional, cell-based; settings: NCI-H358, 168 h
Z-138 [4] = assay: Antitumor activity against human Z138 cells xenografted in mouse as tumor growth inhibition at 1.5 mg/kg, po administered twice daily relative to control; type: functional; settings: read-out: TGI
[5] = target: T2, Protein arginine N-methyltransferase 5 (Homo sapiens, UniProt O14744); assay: Inhibition of PRMT5 (unknown origin)
Z-138 [6] = assay: Antitumor activity against human Z138 cells xenografted in mouse as tumor growth inhibition at 15 mg/kg, po administered twice daily relative to control; type: functional; settings: read-out: TGI
Z-138 [7] = assay: Antiproliferative activity against human Z138 cells; type: functional, cell-based
[8] = target: T2, Protein arginine N-methyltransferase 5; assay: Inhibition of PRMT5 in human Z138 cells assessed as suppression of sDMA level; type: cell-based
Z-138 [9] = assay: Antitumor activity against human Z138 cells xenografted in mouse as tumor growth inhibition at 5 mg/kg, po administered twice daily relative to control; type: functional; settings: read-out: TGI
PRMT5/MEP50 complex [10] = target: T1, PRMT5/MEP50 complex; assay: Binding affinity to PRMT5/MEP50 (unknown origin) using histone H4 peptide assessed as inhibition constant preincubated for 24 hrs followed by substrate addition and measured for 2 hrs in the presence of SAM by MTase-Glo Methyl Transferase Assay; type: protein-complex assay
HCT-116 = assay: Anti-proliferative activity against wild type human HCT-116 cells assessed as cell growth inhibition incubated overnight by CellTiter-Glo luminescent assay; type: functional, cell-based
[11] = Anti-proliferative activity against human HCT116-MTAP null cells assessed as cell growth inhibition incubated overnight by CellTiter-Glo luminescent assay; type: functional, cell-based
[12] = Anti-proliferative activity against human HCT116-MTAP null cells assessed as cell growth inhibition incubated for 6 days by CellTiter-Glo Luminescent Cell Viability Assay; type: functional, cell-based; settings: 144 h
PRMT5/MEP50 complex [13] = target: T1, PRMT5/MEP50 complex; assay: Inhibition of PRMT5/MEP50 (unknown origin) using histone H4 peptide as substrate preincubated for 30 mins followed by substrate addition and measured for 60 mins by AlphaScreen analysis; type: protein-complex assay
[14] = target: T2, Protein arginine N-methyltransferase 5; assay: Inhibition of PRMT5 in human Z138 cells assessed as decrease in sDMA modification incubated for 2 days by fluorescence based assay; type: cell-based
Z-138 [15] = assay: Antitumor activity against human Z138 cells xenografted in CB17-SCID mouse at 50 mg/kg, po QD for 3 weeks relative to control; type: functional; settings: Z-138, 504 h, read-out: TGI
[16] = Oral bioavailability in CB17-SCID mouse at 10 mg/kg incubated for 24 hrs by LC-MS/MS analysis; type: ADME, organism-based; settings: in vivo
Z-138 [17] = assay: Anti-proliferative activity against human Z138 cells assessed as cell growth inhibition incubated for 8 days by Cell-Titer Glo assay; type: functional, cell-based; settings: Z-138, 192 h
[18] = In vivo inhibition of PMRT5 in mouse xenografted with human A427 cells assessed as reduction in sDMA level by ELISA (reference value: 66.4%); type: functional, A-427
[19] = Clearance in rat; type: ADME; settings: in vivo
A-427 [20] = assay: Antitumor activity in human A-427 harboring RBM10 I348N mutant xenografted in mouse model assessed as tumor growth inhibition at 3 mg/kg administered once daily and measured after 44 days relative to control; type: functional; settings: A-427, 1056 h, time 44 day, read-out: TGI
[21] = Volume of distribution at steady state in rat at 2 mg/kg, iv; type: ADME, organism-based; settings: in vivo, read-out: Vdss
A-427 [22] = assay: Antitumor activity in human A-427 harboring RBM10 I348N mutant xenografted in mouse model assessed as tumor growth inhibition at 10 mg/kg administered once daily and measured after 44 days relative to control; type: functional; settings: A-427, 1056 h, time 44 day, read-out: TGI
[23] = Oral bioavailability in rat at 10 mg/kg; type: ADME, organism-based; settings: in vivo
[24] = target: T2, Protein arginine N-methyltransferase 5; assay: Inhibition of PRMT5 in human A427 cells assessed as reduction in sDMA level incubated for 72 hrs by liquid scintillation analysis
A-427 [25] = assay: Antitumor activity in human A-427 harboring RBM10 I348N mutant xenografted in mouse model assessed as tumor growth inhibition at 30 mg/kg administered once daily and measured after 44 days relative to control; type: functional; settings: A-427, 1056 h, time 44 day, read-out: TGI
[26] = target: T2, Protein arginine N-methyltransferase 5; assay: Inhibition of PRMT5 in human U-87 MG cells assessed as suppression of sDMA level incubated for 3 days by western blot analysis; type: cell-based
[27] = target: T2, Protein arginine N-methyltransferase 5; assay: Inhibition of PRMT5 in human NCI-H1048 cells assessed as reduction in dimethylation of SmD1/3 at 10 nM incubated for 48 hrs relative to control; type: cell-based
NCI-H1048 [28] = assay: Antiproliferative activity against human NCI-H1048 cells assessed as cell growth inhibition incubated for 6 days by MTT assay; type: functional; settings: NCI-H1048, 144 h, time 6 day
NCI-H1048 [29] = assay: Antitumor activity against human NCI-H1048 cells xenografted in mouse assessed as tumor growth inhibition at 10 mg/kg, po administered daily for 28 days relative to control; type: functional; settings: NCI-H1048, 672 h, time 28 day, read-out: TGI
NCI-H1048 [30] = assay: Antitumor activity against human NCI-H1048 cells xenografted in mouse assessed as tumor growth inhibition at 10 mg/kg, po administered daily for 28 days with two cycles of 7 days of treatment followed by 7 days without treatment relative to control; type: functional; settings: NCI-H1048, 672 h, time 28 day, read-out: TGI
[31] = target: PRMT5/MEP50 complex (Homo sapiens) (UniProt O14744+Q9BQA1); assay: Binding affinity to Full-length human PRMT5/human MEP50 assessed as association constant by SPR analysis; type: protein-complex assay
[32] = target: T2, Protein arginine N-methyltransferase 5; assay: Inhibition of PRMT5 in human NCI-H1048 cells assessed as reduction in dimethylation of SmD1/3 at 1 nM incubated for 48 hrs relative to control; type: cell-based

T1 sequence (O14744 whole entry): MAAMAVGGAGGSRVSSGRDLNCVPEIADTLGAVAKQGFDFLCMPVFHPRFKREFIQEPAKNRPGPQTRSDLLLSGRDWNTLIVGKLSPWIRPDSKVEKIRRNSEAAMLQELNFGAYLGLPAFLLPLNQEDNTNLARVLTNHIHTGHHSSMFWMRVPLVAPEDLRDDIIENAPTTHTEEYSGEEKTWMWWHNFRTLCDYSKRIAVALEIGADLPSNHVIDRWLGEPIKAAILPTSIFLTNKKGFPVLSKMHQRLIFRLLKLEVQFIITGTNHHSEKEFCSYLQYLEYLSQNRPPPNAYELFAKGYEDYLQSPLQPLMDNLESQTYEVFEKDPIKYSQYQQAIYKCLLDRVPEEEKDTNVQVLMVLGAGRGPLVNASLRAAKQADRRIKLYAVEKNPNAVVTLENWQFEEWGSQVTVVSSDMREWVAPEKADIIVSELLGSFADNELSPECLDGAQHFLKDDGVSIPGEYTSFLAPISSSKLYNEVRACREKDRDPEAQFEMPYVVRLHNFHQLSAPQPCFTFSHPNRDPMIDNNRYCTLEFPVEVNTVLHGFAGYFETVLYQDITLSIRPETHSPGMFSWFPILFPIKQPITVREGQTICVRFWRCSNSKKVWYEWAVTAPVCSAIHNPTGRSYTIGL
T1 sequence (Q9BQA1 whole entry, further chain): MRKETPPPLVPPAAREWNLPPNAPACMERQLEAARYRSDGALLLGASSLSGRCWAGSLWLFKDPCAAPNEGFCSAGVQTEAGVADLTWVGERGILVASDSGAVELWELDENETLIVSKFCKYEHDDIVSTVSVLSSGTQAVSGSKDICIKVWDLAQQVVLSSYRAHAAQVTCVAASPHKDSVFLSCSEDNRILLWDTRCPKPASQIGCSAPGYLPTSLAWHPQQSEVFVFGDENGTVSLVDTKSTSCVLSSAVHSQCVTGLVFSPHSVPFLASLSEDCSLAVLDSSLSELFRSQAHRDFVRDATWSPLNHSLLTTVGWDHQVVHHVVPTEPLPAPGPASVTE
T2 sequence (O14744 whole entry): as the sequence (O14744 whole entry) above
Voltage-gated inwardly rectifying potassium channel KCNH2, sequence (Q12809 whole entry): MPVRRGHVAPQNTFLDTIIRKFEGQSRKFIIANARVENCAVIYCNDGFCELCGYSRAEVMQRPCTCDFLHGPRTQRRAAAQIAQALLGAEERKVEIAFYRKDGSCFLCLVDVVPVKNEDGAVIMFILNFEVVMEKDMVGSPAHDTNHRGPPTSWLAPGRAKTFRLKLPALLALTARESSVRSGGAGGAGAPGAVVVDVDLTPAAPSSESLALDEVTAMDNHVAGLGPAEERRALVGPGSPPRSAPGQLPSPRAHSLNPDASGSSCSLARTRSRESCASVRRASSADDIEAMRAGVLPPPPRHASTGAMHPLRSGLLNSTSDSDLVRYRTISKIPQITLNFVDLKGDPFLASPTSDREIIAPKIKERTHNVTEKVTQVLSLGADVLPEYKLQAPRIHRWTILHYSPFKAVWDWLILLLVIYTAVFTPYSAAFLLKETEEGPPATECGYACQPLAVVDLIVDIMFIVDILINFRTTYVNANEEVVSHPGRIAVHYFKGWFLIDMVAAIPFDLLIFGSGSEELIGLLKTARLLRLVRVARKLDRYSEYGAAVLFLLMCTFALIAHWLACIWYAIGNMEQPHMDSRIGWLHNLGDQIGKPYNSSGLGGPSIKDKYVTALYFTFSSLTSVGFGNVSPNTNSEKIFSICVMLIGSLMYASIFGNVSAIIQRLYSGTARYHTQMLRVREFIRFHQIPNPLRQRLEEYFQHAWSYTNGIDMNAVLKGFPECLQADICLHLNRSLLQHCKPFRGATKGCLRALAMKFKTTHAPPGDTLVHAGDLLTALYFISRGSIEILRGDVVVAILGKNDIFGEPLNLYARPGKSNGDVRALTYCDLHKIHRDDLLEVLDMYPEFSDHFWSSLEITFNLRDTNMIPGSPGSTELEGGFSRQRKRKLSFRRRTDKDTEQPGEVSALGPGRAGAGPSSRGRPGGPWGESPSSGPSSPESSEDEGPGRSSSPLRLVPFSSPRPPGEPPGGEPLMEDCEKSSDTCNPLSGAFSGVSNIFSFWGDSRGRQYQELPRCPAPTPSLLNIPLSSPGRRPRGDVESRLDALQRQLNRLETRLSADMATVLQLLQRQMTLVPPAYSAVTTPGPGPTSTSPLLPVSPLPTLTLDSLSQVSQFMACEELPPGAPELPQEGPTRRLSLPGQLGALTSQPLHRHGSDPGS

Nc1ncnc2c1ccn2[C@@H]1O[C@H]([C@H](O)c2ccc(Cl)c(F)c2)[C@@H](O)[C@H]1O
Kd (PRMT5/MEP50 complex [1]): 0.241 nM

Nc1ncnc2c1ccn2[C@@H]1O[C@H]([C@@H]2OCCc3cc(Cl)ccc32)[C@@H](O)[C@H]1O
IC50 (U-87 MG): 2.6 nM

CC(=O)N1CCC(Nc2cc3c(cn2)C2(CC2)CN(C[C@H](O)CN2CCc4ccccc4C2)C3=O)CC1
IC50 [2]: 5.2 µM

CC(=O)N1CC2(CC(Nc3cc4c(cn3)C3(CC3)CN(C[C@H](O)CN3CCc5ccccc5C3)C4=O)C2)C1
IC50 (Z-138 [3]): 2.2 nM
IC50 (MDA-MB-468): 7.4 nM
IC50 (NCI-H358): 5 nM
IC50 [2]: 15.1 µM

CCN1CCN(C[C@@H](O)[C@@H]2Cc3ccccc3CN2)C(=O)c2ccc(C(=O)N3CCC4(CC3)CC(OC)C4)cc21
inhibition in vivo at 1.5 mg/kg (Z-138 [4]): 36%
IC50 [5]: 4.2 nM
inhibition in vivo at 15 mg/kg (Z-138 [6]): 112%
IC50 (Z-138 [7]): 2.2 nM
IC50 [8]: 1.4 nM
inhibition in vivo at 5 mg/kg (Z-138 [9]): 47.8%

Cc1cc2cc(C(=O)N(Cc3ccc(C(F)(F)F)cn3)[C@@H]3CCCc4[nH]ncc43)ccc2nc1N
Ki (PRMT5/MEP50 complex [10]): 0.05 nM
IC50 (HCT-116): 142 nM
IC50 [11]: 10 nM
IC50 [12]: 5 nM

CC1(C)CN(C[C@@H](O)[C@@H]2Cc3ccccc3CN2)C(=O)c2ccc(C(=O)N3CCC4(CC3)CC4)cc21
IC50 (PRMT5/MEP50 complex [13]): 2.8 nM
IC50 [14]: 0.8 nM
inhibition in vivo at 50 mg/kg (Z-138 [15]): 93.2%
bioavailability [16]: 46.2%
IC50 (Z-138 [17]): 0.3 nM

Cc1ncnc2c1ccn2[C@@H]1C[C@H](Oc2cc(C(F)F)c(F)c3c2CNCC3)[C@@H](O)[C@H]1O
inhibition (INH) [18]: 79.8%
clearance [19]: 40 mL/min/kg
inhibition in vivo at 3 mg/kg (A-427 [20]): 52.1%
Vd [21]: 3.8 L/kg
Kd (PRMT5/MEP50 complex [1]): 0.0114 nM
inhibition in vivo at 10 mg/kg (A-427 [22]): 74.9%
bioavailability [23]: 40%
IC50 [24]: 1.1 nM
inhibition in vivo at 30 mg/kg (A-427 [25]): 101%

Nc1ncnc2c1ccn2[C@@H]1O[C@H]([C@@H]2OCc3cc(Cl)ccc32)[C@@H](O)[C@H]1O
IC50 [26]: 120 nM

Nc1nc2cc(CC[C@H]3C[C@@H](n4ccc5c(N)ncnc54)[C@H](O)[C@@H]3O)ccc2cc1Br [ONAMETOSTAT]
inhibition [27]: 80%
GI50 (NCI-H1048 [28]): 1.3 nM
inhibition in vivo at 10 mg/kg (NCI-H1048 [29]): 77%
inhibition in vivo at 10 mg/kg (NCI-H1048 [30]): 67%
Ka [31]: 6.3 10^5/M/s
inhibition [32]: > 50%
